According to patent EP4667466A1, “PROTAC DEGRADERS OF MLLT1 AND/OR MLLT3” (priority 2024, dated 2025):

Target: T1, MLLT1 (Homo sapiens, UniProt Q03111)
T1 construct: endogenous in cells; host or cells: MV4-11 (ATCC CRL-9591)
T1 sequence (Q03111 1-559): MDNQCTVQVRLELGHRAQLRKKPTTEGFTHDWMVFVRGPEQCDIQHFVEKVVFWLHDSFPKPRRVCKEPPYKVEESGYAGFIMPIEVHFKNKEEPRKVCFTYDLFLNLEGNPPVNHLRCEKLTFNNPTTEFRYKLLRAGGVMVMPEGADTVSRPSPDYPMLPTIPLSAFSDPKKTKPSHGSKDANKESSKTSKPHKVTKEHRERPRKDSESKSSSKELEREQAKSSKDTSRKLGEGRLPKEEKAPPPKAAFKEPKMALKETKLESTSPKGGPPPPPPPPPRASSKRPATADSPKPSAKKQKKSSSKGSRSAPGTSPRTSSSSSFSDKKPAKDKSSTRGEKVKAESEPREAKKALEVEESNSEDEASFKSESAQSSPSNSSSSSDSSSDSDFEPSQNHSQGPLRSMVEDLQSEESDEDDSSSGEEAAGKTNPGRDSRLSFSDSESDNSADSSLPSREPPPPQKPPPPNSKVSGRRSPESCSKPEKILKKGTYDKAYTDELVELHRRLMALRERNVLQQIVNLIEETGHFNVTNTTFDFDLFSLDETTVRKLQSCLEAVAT
Test: MLLT1 degradation assay (JESS automated chemiluminescent detection) in MV4-11 cells
Format: cell-based
Conditions: 24h, with respect to DMSO control
Procedure: MLLT1 degradation efficacy of compounds was tested in an automated chemiluminescent detection system (JESS, Cat# 004-650). MV4-11 (#CRL-9591, ATCC) cells were seeded at a density of 1.2 million cells/well in a non-treated 6-well cell culture plate in 2.4 mL of complete medium (IMDM + 10% FBS + 1X Penicillin-Streptomycin). 10 mM DMSO stocks were prepared, and cells were treated with three concentrations of test compounds viz. 1000, 100 and 10 nM at a final DMSO concentration of 0.1% and incubated for 24h at 37°C, 5% CO2. Post incubation, cells were centrifuged, washed with HBSS and lysed in 70 uL of RIPA buffer supplemented with Protease inhibitors (sc-24948; Santa Cruz). Subsequently, protein estimation was done using BCA protein assay kit (23225; Pierce). 4 ug protein lysate (4 uL of 1ug/uL lysate) was loaded into each well of the JESS cartridge (SM-WO01; Bio-techne) and the JESS run was performed using 1:900 dilution of anti-human MLLT1 antibody (14893; Cell signaling technology) and 1:1200 dilution of anti-human GAPDH antibody (2118; Cell signaling technology) with anti-rabbit secondary detection module (DM-001; Bio-Techne). Post run, data were analysed using "Compass for SW" software for chemiluminescent detection. The peak area for each band was used for the calculation of MLLT1 degradation with respect to DMSO control. Data is shown as "MLLT1 % degradation". Category A: A ≥ 75% degradation Category B: 50% ≤ B < 75% degradation Category C: 25% ≤ C < 50% degradation Category D: D < 25% degradation Table 1

Row | inhibition at 0.1 µM [%] | inhibition at 1 µM [%] | inhibition at 0.01 µM [%] | Compound
1 | 50 to 75 | ≥ 75 | < 25 | Cc1nn(CCCCCC#Cc2cccc(C(=O)NC3CCC(=O)NC3=O)c2F)c2cc(C(=O)Nc3cc4[nH]c([C@H]5CCCN5C)cc4cn3)ccc12 (stereo partly drawn) [Example 34, 1-(7-(3-((2,6-dioxopiperidin-3-yl)carbamoyl)-2-fluorophenyl)hept-6-yn-1-yl)-3-methyl-N-(2-((R)-1-methylpyrrolidin-2-yl)-1H-pyrrolo[3,2-c]pyridin-6-yl)-1H-indazole-6-carboxamide]
2 | < 25 | 50 to 75 | 25 to 50 | Cc1c(C#CCCCCCn2nc(C)c3ccc(C(=O)Nc4cc5[nH]c([C@H]6CCCN6C)cc5cn4)cc32)cccc1C(=O)NC1CCC(=O)NC1=O (stereo partly drawn) [Example 35, 1-(7-(3-((2,6-dioxopiperidin-3-yl)carbamoyl)-2-methylphenyl)hept-6-yn-1-yl)-3-methyl-N-(2-((R)-1-methylpyrrolidin-2-yl)-1H-pyrrolo[3,2-c]pyridin-6-yl)-1H-indazole-6-carboxamide]

More lines, now with the values behind:

Row | Compound | inhibition at 0.1 µM [%] | inhibition at 1 µM [%] | inhibition at 0.01 µM [%]
3 | Cc1nn(CCCC2CCN(c3ccc(C(=O)NC4CCC(=O)NC4=O)cc3F)CC2)c2cc(C(=O)Nc3cc4[nH]c([C@H]5CCCN5C)cc4cn3)ccc12 (stereo partly drawn) [Example 28, 1-(3-(1-(4-((2,6-dioxopiperidin-3-yl)carbamoyl)-2-fluorophenyl)piperidin-4-yl)propyl)-3-methyl-N-(2-((R)-1-methylpyrrolidin-2-yl)-1H-pyrrolo[3,2-c]pyridin-6-yl)-1H-indazole-6-carboxamide] | 25 to 50 | 25 to 50 | –
4 | Cc1nn(CCCCCC2CCN(c3cccc4c3C(=O)N(C3CCC(=O)NC3=O)C4=O)CC2)c2cc(C(=O)Nc3cc4[nH]c([C@H]5CCCN5C)cc4cn3)ccc12 (stereo partly drawn) [Example 29, 1-(5-(1-(2-(2,6-dioxopiperidin-3-yl)-1,3-dioxoisoindolin-4-yl)piperidin-4-yl)pentyl)-3-methyl-N-(2-((R)-1-methylpyrrolidin-2-yl)-1H-pyrrolo[3,2-c]pyridin-6-yl)-1H-indazole-6-carboxamide] | ≥ 75 | ≥ 75 | 50 to 75
5 | Cc1nn(CCCOCC#Cc2cccc3c2CN(C2CCC(=O)NC2=O)C3=O)c2cc(C(=O)Nc3cc4[nH]c([C@H]5CCCN5C)cc4cn3)ccc12 (stereo partly drawn) [Example 31, 1-(3-((3-(2-(2,6-dioxopiperidin-3-yl)-1-oxoisoindolin-4-yl)prop-2-yn-1-yl)oxy)propyl)-3-methyl-N-(2-((R)-1-methylpyrrolidin-2-yl)-1H-pyrrolo[3,2-c]pyridin-6-yl)-1H-indazole-6-carboxamide] | 50 to 75 | ≥ 75 | 25 to 50
6 | Cc1nn(CCCCCC#Cc2cccc3c2C(=O)N(C2CCC(=O)NC2=O)C3=O)c2cc(C(=O)Nc3cc4[nH]c([C@H]5CCCN5C)cc4cn3)ccc12 (stereo partly drawn) [Example 33, 1-(7-(2-(2,6-dioxopiperidin-3-yl)-1,3-dioxoisoindolin-4-yl)hept-6-yn-1-yl)-3-methyl-N-(2-((R)-1-methylpyrrolidin-2-yl)-1H-pyrrolo[3,2-c]pyridin-6-yl)-1H-indazole-6-carboxamide] | 50 to 75 | ≥ 75 | 50 to 75
7 | CN1CCC[C@@H]1c1cc2cnc(NC(=O)c3ccc4c(cnn4CCCCCCCCNc4cccc5c4C(=O)N(C4CCC(=O)NC4=O)C5=O)c3)cc2[nH]1 (stereo partly drawn) [Example 36, 1-(8-((2-(2,6-dioxopiperidin-3-yl)-1,3-dioxoisoindolin-4-yl)amino)octyl)-N-(2-((R)-1-methylpyrrolidin-2-yl)-1H-pyrrolo[3,2-c]pyridin-6-yl)-1H-indazole-5-carboxamide] | ≥ 75 | ≥ 75 | ≥ 75
